Assay results published in ChEMBL document CHEMBL1147549, “Imidazole acetic acid TAFIa inhibitors: SAR studies centered around the basic P(1)(') group” (Bioorg Med Chem Lett, 2004).

Tests used:
Carboxypeptidase B2 = molecular target: T1, Carboxypeptidase B2 (Homo sapiens, UniProt Q96IY4); experiment: Inhibitory potency against human TAFIa (thrombin-activatable fibrinolysis inhibitor)
T1 sequence (Q96IY4 whole entry): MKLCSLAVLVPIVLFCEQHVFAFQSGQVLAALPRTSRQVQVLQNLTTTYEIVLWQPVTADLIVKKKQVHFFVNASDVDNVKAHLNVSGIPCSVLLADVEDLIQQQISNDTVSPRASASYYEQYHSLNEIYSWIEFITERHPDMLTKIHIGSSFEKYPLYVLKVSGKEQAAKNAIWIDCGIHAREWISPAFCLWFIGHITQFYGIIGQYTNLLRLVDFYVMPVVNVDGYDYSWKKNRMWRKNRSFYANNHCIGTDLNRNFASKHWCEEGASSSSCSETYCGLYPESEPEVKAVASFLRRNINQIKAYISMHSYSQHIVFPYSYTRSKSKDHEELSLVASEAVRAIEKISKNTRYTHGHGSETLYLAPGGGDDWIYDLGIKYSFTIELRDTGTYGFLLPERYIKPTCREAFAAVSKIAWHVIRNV

Carboxypeptidase B = molecular target: T2, Carboxypeptidase B (Homo sapiens, UniProt P15086); experiment: Inhibition of human carboxypeptidase B (CPB)
T2 sequence (P15086 whole entry): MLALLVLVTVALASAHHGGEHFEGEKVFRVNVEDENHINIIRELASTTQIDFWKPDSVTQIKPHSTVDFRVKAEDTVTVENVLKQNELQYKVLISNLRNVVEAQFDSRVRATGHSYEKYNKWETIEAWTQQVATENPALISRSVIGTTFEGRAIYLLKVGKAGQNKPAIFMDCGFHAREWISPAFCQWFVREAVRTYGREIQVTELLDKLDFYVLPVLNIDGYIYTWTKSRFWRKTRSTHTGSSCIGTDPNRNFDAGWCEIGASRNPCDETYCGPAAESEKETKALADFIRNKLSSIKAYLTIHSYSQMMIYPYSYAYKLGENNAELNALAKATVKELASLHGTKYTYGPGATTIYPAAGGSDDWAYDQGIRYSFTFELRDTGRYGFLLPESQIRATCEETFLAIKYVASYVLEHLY

[1] = Concentration providing 50% acceleration of clot lysis in pooled human plasma; assay type: functional
Homo sapiens = organism: Homo sapiens; experiment: Selectivity for TAFIa versus CPB carboxypeptidase B isoforms

## Nc1ncc(CC(C(=O)O)c2cnc[nH]2)cc1Cl (configuration not stated)
Carboxypeptidase B2
  IC50: 5.3 µM

## NCCCCC(C(=O)O)c1c[nH]cn1 (configuration not stated)
Carboxypeptidase B
  IC50: 3.7 µM
[1]
  CLT50: >=20 uM
Carboxypeptidase B2
  IC50: 0.59 µM
Homo sapiens
  Selectivity: 6.3

## O=C(O)C(Cc1ccc2nccn2c1)c1cnc[nH]1 (configuration not stated)
Carboxypeptidase B2
  IC50: 3.3 µM

## Nc1cccc(CC(C(=O)O)c2cnc[nH]2)n1 (configuration not stated)
Carboxypeptidase B2
  IC50: 15 µM

## CC(C)CCn1cnc(C(CCCCN)C(=O)O)c1 (configuration not stated)
Carboxypeptidase B
  IC50: 0.16 µM
[1]
  CLT50: 0.21 µM
Carboxypeptidase B2
  IC50: 0.024 µM
Homo sapiens
  Selectivity: 6.7

## O=C(O)C(CCC1CNC1)c1cnc[nH]1 (configuration not stated)
Carboxypeptidase B2
  IC50: > 20 µM

## O=C(O)C(CC1CCCNCC1)c1c[nH]cn1 (configuration not stated)
Carboxypeptidase B2
  IC50: > 20 µM

## Cc1cc(CC(C(=O)O)c2cn(CCC(C)C)cn2)cnc1N (configuration not stated)
Carboxypeptidase B
  IC50: 0.001 µM
[1]
  CLT50: 0.17 µM
Carboxypeptidase B2
  IC50: 0.023 µM
Homo sapiens
  Selectivity: 0.04

## O=C(O)C(CCC1CCCNCC1)c1cnc[nH]1 (configuration not stated)
Carboxypeptidase B2
  IC50: > 20 µM

## Nc1ncc(CC(C(=O)O)c2c[nH]cn2)cn1 (configuration not stated)
Carboxypeptidase B2
  IC50: 67 µM

## O=C(O)C(CC1CNC1)c1cnc[nH]1 (configuration not stated)
Carboxypeptidase B2
  IC50: > 20 µM

## Nc1cc(CC(C(=O)O)c2c[nH]cn2)ccn1 (configuration not stated)
Carboxypeptidase B2
  IC50: 12 µM

## NC1CCCC(CC(C(=O)O)c2c[nH]cn2)C1 (configuration not stated)
Carboxypeptidase B2
  IC50: > 20 µM

## CC(CN)CCC(C(=O)O)c1cnc[nH]1 (configuration not stated)
Carboxypeptidase B
  IC50: 1.5 µM
Carboxypeptidase B2
  IC50: 0.27 µM

## Cc1cc(CC(C(=O)O)c2cn(CCC(C)(C)C)cn2)cnc1N (configuration not stated)
Carboxypeptidase B
  IC50: 0.001 µM
[1]
  CLT50: 0.159 µM
Carboxypeptidase B2
  IC50: 0.012 µM
Homo sapiens
  Selectivity: 0.08

## O=C(O)C(CCC1CCNCC1)c1c[nH]cn1 (configuration not stated)
Carboxypeptidase B2
  IC50: > 20 µM

## CC(C)(CN)CCC(C(=O)O)c1c[nH]cn1 (configuration not stated)
Carboxypeptidase B
  IC50: 0.6 µM
Carboxypeptidase B2
  IC50: 0.38 µM
Homo sapiens
  Selectivity: 1.6

## O=C(O)C(CC1CCNC1)c1c[nH]cn1 (configuration not stated)
Carboxypeptidase B2
  IC50: > 20 µM

## NCCCC(C(=O)O)c1cnc[nH]1 (configuration not stated)
Carboxypeptidase B2
  IC50: 6.8 µM

## CC(C)CCn1cnc(C(Cc2ccc(N)nc2)C(=O)O)c1 (configuration not stated)
Carboxypeptidase B
  IC50: 0.004 µM
[1]
  CLT50: ==0.12 uM

## CC(C)(C)CCn1cnc(C(C[C@H]2CC[C@H](N)C2)C(=O)O)c1 (some centres not stated)
Carboxypeptidase B
  IC50: 0.001 µM
[1]
  CLT50: 0.014 µM
Carboxypeptidase B2
  IC50: 0.001 µM
Homo sapiens
  Selectivity: 1

## NCCCCCC(C(=O)O)c1cnc[nH]1 (configuration not stated)
Carboxypeptidase B2
  IC50: 4.7 µM

## O=C(O)C(CCC1CCNC1)c1cnc[nH]1 (configuration not stated)
Carboxypeptidase B2
  IC50: > 20 µM

## Nc1ccc(CC(C(=O)O)c2c[nH]cn2)cn1 (configuration not stated)
Carboxypeptidase B
  IC50: 0.07 µM
[1]
  CLT50: 0.97 µM

## NC1CCC(CC(C(=O)O)c2cnc[nH]2)CC1 (configuration not stated)
Carboxypeptidase B2
  IC50: 7 µM

## Cc1cc(N)ncc1CC(C(=O)O)c1c[nH]cn1 (configuration not stated)
Carboxypeptidase B2
  IC50: 1.5 µM

## Cc1cc(CC(C(=O)O)c2c[nH]cn2)cnc1N (configuration not stated)
Carboxypeptidase B
  IC50: 0.02 µM
[1]
  CLT50: 2.1 µM
Carboxypeptidase B2
  IC50: 0.1 µM
Homo sapiens
  Selectivity: 0.2

## Nc1ncc(CC(C(=O)O)c2c[nH]cn2)cc1F (configuration not stated)
Carboxypeptidase B2
  IC50: 6.7 µM

## CC(CN)CCC(C(=O)O)c1c[nH]cn1 (configuration not stated)
Homo sapiens
  Selectivity: 5.6

## CN(C)CCCCC(C(=O)O)c1cnc[nH]1 (configuration not stated)
Carboxypeptidase B2
  IC50: > 50 µM

## Cc1nc(N)ccc1CC(C(=O)O)c1c[nH]cn1 (configuration not stated)
Carboxypeptidase B2
  IC50: 5.8 µM

## CNc1ccc(CC(C(=O)O)c2cnc[nH]2)cn1 (configuration not stated)
Carboxypeptidase B2
  IC50: 13 µM

## O=C(O)C(CC1CCNCC1)c1cnc[nH]1 (configuration not stated)
Carboxypeptidase B2
  IC50: > 20 µM

## CNCCCCC(C(=O)O)c1cnc[nH]1 (configuration not stated)
Carboxypeptidase B2
  IC50: 26 µM
